For one assay, the system named is human and rat GPR-14. The experiment in a line: Radioligand binding, [125I] h-U-II on HEK-293 cell membranes. The note with it: radioligand binding assay; species of GPR-14 not given. How it is done:
HEK-293 cell membranes containing stable cloned human and rat GPR-14 (20 ug/assay) were incubated with 200 pM [125I] h-U-II (200 Ci/mmol^−1 in the presence of increasing concentrations of test compounds in DMSO (0.1 nM to 10 uM), in a final incubation volume of 200 ul (20 mM Tris-HCl, 5 mM MgCl2). Incubation was done for 30 minutes at room temperature followed by filtration GF/B filters with Brandel cell harvester. ^125I labeled U-II binding was quantitated by gamma counting. Nonspecific binding was defined by ^125I U-II binding in the presence of 100 nM of unlabeled human U-II. Analysis of the data was performed by nonlinear least square fitting.

A further assay relates to rat-isolated aorta. The note with it: cited from earlier work.

In the case of `O=C(NC1CCN(Cc2ccc(OCCN3CCCC3)c3ccccc23)C1)c1ccc(Cl)c(Cl)c1` (centres unmarked) [Example 13], the inhibitory constant (Ki) (as a rule, the equilibrium dissociation constant of an inhibitor or competing ligand from its target) in the assay with human and rat GPR-14 is 360 nM. That is a sub-micromolar value.

With `CC(C)[C@H](NC(=O)[C@@H]1CSSC[C@H](NC(=O)[C@H](CC(=O)O)NC(=O)[C@@H]2CCCN2C(=O)[C@@H](NC(=O)[C@@H](N)CCC(=O)O)[C@@H](C)O)C(=O)N[C@@H](Cc2ccccc2)C(=O)N[C@@H](Cc2c[nH]c3ccccc23)C(=O)N[C@@H](CCCCN)C(=O)N[C@@H](Cc2ccc(O)cc2)C(=O)N1)C(=O)O` [Human Urotensin-II], in the assay with rat-isolated aorta, the contractile activity result is reported as “most potent contractile agonist identified to date”.
